# Test results reported in PMC4997860, “The Heterodimeric ABC Transporter EfrCD Mediates Multidrug Efflux in Enterococcus faecalis” (Antimicrobial Agents and Chemotherapy, 2016).
# Legend:
# Test in all cases: ATPase modulation in proteoliposomes, malachite green
# Type in all cases: biochemical
# EfrAB = biological target: T1, EfrAB (Enterococcus faecalis, UniProt Q82ZX7+Q82ZX8); details: 20 uM Hoechst 33342; 1 mM ATP, 10 mM MgSO4, pH 7.0, 30°C; bell-shaped curve
# T1 construct: gene EF_2920; full-length heterodimer, N-terminal deca-His tag on first chain cleaved with 3C protease, expressed in L. lactis NZ9000 dlmrA dlmrCD; proteoliposomes
# T1 sequence (Q82ZX8 entry or part of it): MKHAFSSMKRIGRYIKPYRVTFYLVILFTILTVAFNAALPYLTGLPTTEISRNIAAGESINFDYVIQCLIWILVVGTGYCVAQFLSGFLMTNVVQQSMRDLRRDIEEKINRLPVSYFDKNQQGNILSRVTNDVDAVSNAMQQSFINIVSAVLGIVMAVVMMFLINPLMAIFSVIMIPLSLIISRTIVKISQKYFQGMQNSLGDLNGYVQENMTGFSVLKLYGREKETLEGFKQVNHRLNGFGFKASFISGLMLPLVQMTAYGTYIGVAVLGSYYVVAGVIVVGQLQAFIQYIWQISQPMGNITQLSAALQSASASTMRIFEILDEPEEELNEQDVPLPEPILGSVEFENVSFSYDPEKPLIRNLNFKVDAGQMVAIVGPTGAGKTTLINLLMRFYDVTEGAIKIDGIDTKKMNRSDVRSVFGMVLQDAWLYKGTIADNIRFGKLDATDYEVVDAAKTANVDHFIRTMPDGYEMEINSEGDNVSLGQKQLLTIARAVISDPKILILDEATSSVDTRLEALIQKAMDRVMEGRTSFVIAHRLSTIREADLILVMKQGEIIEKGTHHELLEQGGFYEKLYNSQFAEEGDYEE
# T1 sequence (Q82ZX7 entry or part of it): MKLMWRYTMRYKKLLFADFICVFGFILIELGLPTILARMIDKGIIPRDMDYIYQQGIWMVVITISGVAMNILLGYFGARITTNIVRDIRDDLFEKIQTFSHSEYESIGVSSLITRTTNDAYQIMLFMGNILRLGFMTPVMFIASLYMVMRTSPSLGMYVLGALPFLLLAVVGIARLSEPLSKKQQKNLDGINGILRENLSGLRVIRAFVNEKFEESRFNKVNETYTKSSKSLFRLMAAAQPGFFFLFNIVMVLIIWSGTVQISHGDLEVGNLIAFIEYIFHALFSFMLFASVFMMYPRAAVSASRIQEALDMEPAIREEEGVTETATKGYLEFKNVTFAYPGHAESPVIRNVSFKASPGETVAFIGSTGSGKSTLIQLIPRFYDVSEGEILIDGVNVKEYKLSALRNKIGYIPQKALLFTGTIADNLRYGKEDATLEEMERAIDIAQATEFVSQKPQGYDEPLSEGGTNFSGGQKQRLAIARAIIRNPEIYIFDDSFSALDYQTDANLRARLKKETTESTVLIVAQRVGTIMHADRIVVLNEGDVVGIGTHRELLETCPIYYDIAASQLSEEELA
# EfrEF [1] = biological target: T2, EfrEF (Enterococcus faecalis, UniProt Q832J9+Q832K0); details: 2.5 uM Hoechst 33342; 1 mM ATP, 10 mM MgSO4, pH 7.0, 30°C; bell-shaped curve
# T2 construct: gene EF_2226; full-length heterodimer, N-terminal deca-His tag on first chain cleaved with 3C protease, expressed in L. lactis NZ9000 dlmrA dlmrCD; proteoliposomes
# T2 sequence (Q832K0 entry or part of it): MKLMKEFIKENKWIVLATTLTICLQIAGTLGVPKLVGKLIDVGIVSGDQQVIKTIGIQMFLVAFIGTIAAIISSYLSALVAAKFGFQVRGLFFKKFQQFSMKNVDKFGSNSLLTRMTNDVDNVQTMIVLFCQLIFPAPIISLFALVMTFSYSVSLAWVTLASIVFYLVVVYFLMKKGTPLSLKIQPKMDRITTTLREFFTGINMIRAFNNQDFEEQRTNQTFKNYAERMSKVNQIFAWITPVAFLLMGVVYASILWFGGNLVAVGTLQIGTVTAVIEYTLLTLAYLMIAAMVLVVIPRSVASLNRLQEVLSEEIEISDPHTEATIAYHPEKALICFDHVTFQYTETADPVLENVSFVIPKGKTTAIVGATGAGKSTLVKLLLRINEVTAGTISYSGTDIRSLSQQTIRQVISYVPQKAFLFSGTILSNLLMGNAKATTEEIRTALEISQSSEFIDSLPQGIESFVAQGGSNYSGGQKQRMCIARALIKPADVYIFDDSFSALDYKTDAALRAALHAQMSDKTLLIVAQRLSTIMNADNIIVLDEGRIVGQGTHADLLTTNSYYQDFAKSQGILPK
# T2 sequence (Q832J9 entry or part of it): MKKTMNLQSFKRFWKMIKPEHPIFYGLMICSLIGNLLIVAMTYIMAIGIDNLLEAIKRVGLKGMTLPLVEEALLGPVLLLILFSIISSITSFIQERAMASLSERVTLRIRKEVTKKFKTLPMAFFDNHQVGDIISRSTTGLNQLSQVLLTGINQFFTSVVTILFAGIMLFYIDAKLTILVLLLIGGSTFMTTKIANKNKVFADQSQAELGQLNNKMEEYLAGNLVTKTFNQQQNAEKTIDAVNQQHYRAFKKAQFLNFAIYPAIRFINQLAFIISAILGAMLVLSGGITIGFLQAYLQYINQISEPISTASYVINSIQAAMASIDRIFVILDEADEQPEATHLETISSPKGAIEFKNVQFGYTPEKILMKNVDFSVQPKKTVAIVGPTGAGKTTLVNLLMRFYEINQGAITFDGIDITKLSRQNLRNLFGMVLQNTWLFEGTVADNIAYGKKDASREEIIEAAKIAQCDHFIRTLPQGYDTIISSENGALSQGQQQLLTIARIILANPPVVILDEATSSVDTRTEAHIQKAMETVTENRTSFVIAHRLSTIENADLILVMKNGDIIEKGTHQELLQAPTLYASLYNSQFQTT
# EfrCD = biological target: T3, EfrCD (Enterococcus faecalis, UniProt Q837P4+Q837P5); details: 0.1-200 uM drug; 1 mM ATP, 10 mM MgSO4, pH 7.0, 30°C; bell-shaped curve
# T3 construct: gene EF_0789; full-length heterodimer, N-terminal deca-His tag on EfrC cleaved with 3C protease (tag present in cells), expressed in L. lactis NZ9000 dlmrA dlmrCD; proteoliposomes
# T3 sequence (Q837P5 entry or part of it): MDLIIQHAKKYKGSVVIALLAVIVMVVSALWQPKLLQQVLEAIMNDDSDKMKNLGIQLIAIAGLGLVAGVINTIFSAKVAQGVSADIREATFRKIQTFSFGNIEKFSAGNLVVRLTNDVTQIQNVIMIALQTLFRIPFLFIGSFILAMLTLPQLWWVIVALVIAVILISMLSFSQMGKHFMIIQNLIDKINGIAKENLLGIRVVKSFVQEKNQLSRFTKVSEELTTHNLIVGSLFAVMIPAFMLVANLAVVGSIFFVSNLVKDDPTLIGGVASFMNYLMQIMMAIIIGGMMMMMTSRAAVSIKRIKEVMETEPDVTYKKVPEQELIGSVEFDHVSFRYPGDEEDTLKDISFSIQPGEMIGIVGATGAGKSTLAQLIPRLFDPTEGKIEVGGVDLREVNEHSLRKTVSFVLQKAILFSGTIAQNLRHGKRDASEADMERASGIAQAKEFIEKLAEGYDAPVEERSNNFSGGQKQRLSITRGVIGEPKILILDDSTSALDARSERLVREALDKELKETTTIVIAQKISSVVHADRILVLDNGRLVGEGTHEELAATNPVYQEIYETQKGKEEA
# T3 sequence (Q837P4 entry or part of it): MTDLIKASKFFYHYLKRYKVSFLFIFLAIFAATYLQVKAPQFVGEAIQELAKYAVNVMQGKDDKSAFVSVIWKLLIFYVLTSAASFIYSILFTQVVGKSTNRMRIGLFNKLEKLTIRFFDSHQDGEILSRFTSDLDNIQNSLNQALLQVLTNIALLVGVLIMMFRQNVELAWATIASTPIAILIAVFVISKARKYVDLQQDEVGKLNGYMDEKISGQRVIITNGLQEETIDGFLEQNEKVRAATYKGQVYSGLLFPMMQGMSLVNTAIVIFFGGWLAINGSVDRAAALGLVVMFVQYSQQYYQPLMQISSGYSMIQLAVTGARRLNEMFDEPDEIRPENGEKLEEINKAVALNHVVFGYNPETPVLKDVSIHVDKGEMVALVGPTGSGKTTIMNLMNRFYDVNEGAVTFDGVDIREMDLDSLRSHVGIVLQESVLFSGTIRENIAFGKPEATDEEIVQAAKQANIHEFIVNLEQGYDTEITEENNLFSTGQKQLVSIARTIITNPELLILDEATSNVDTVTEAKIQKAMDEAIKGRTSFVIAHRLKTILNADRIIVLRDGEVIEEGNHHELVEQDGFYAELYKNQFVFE
# EfrEF [2] = biological target: T2, EfrEF; details: 0.1-200 uM drug; 1 mM ATP, 10 mM MgSO4, pH 7.0, 30°C; bell-shaped curve
structure (smiles),measurement,setting,value
CCOc1ccc(-c2nc3ccc(-c4nc5ccc(N6CCN(C)CC6)cc5[nH]4)cc3[nH]2)cc1 [Hoechst 33342],maximal ATPase stimulation (basal = 100%),EfrAB,165%
same,maximal ATPase stimulation (basal = 100%),EfrEF [1],130%
COc1cccc2c1C(=O)c1c(O)c3c(c(O)c1C2=O)C[C@@](O)(C(C)=O)C[C@@H]3O[C@H]1C[C@H](N)[C@H](O)[C@H](C)O1 [daunorubicin],drug-modulated ATPase activity,EfrCD,a strong response in the form of a bell-shaped curve was seen for EfrCD
CC[n+]1c(-c2ccccc2)c2cc(N)ccc2c2ccc(N)cc21 [ethidium],drug-modulated ATPase activity,EfrEF [2],"For ethidium, a bell-shaped curve with a large magnitude was observed for EfrEF"
